Results: patent US6894153B1, “Gene Any-RF; dormancy regulatory substance, process for producing the same and cell regulator for vital cells” (priority 1999, dated 2005)
No end group written: not given here.

Legend:
[1] = test system: cultured cells of lymphoma and leukemia; conditions: Moore et al. 1994; cited from earlier work
[2] = test system: rat hepatoma cells (dRLh84); assay: Assay for cancer cell growth-control (viable cell count, trypan blue); type: cell-based
Protocol: (§1) Rat hepatoma cells (dRLh 84) were used and these cells were cultivated in Dulbecco's modified Eagle medium (DMEM) containing 4 mM glutamine, 50U/ml penicillin, 100 μg/ml kanamycin, and supplemented with 10% neonatal calf serum. In respect of the foregoing cells, the cultivation thereof was carried out at 37° C. in a wet atmosphere including 5% CO2.
The used culture medium was removed from a (100 mm dish (generally schale) in which cells were cultured and the dish was once washed with PBS(−) (prepared by removing Ca and Mg ions from phosphate buffered saline). To the dish, there was gently added 1.5 ml of a 10% trypsin solution so that the solution uniformly spreaded throughout the dish, 1 ml of the solution was removed, the dish was maintained at 37° C. for 5 minutes and it was confirmed with a microscope that the cells were pealed off from the bottom of the dish. Then 9.5 ml of a fresh DEME medium was added to the dish and the cells were separated into individual cells by pipetting to thus suspend the cells in the medium. Dishes of Φ100 mm were inoculated with this suspension in a dilution of 1/20 (total amount: 10 ml), followed by introduction thereof into an incubator and cultivation for 24 hours. Each peptide was added to these dishes in a predetermined concentration, followed by cultivation at 37° C., determination of the number of cells using a blood counting plate after 24 and 48 hours from the initiation of the cultivation to thus inspect the peptides for their cell growth-control functions.
Rat hepatoma cells (dRLh84, 3×10^5 cells) were cultured in a culture medium, to which the peptide (DILRG—NH2, SEQ ID NO:5, the peptide of SEQ ID NO:1 having the C-terminal amidated or DILRG—COOH, SEQ ID NO:1) was added in a predetermined amount (0, 50, 100, 150, 200 μg/ml) in the presence of 5% CO2 at 37° C. for 40 hours. Thereafter, the culture medium was treated with trypan blue to determine the […] cell count.
Thus, the cultivation time was extended to investigate the relation between the proliferation ability of cancer cells and the cultivation time using the physiologically active substance of the present invention. The method for cultivation used herein was identical to that used in Example 7. The cultivation time was extended up to 72 hours. The cultivation of 3×10^5 cells was carried out using a culture medium supplemented with PBS(−) for a control group and a cell culture medium for an experimental group, to which 200 μg/ml of the peptide (DILRG—NH2) was added, in the presence of 5% CO2 at 37° C. for 24, 48 and 72 hours, respectively. Thereafter, the culture medium was treated with trypan blue to determine the viable cell count.
The fact that the physiologically active substance derived from insects can results obtained in Examples 6, 7 and 8. […] Thus, we investigated which part of the 5 amino acid sequence of this substance is indispensable to the cell growth-control activity from the structural standpoint. Cells were cultured by the same method used in Example 6. More specifically, in the control group, there were used a culture medium supplemented with PBS(−) and FMRF—NH2(SEQ ID NO:4), which is widely distributed from echinoderms to insects and mammals, which comprises 4 amino acid residues and whose C-terminal is amidated. In an experimental group, there was used a culture medium supplemented with the complete synthetic peptide (DILRG—NH2) or an incomplete synthetic peptide (ILRG—NH2) free of the aspartic acid residue at the N-terminal in a concentration of 200 μg/2.6×10^5 cells. The control group and the experimental group were cultured at 37° C. for 48 hours in the presence of 5% CO2. Thereafter the cells were stained with trypan blue to thus determine the number of cells.

[3] = test system: pre-larvae of Antheraea yamamai; assay: Bioassay of dormancy-control in pre-larvae destined to awake by KK-42 treatment
Protocol: In general, the activity of a repressive factor is determined using a non-dormancy type insect and evaluated on the basis of the rate of dormancy induction, but there is not any non-dormancy type strain in Antheraea yamamai.
Subsequent to the completion of the treatment for awakening from the dormancy, 0.05 μl each of distilled water was injected to each larva after 24 hours from the completion of the treatment and this group of larvae was used as the control group. In the case of the isolated and purified product, a solution whose concentration was adjusted in such a manner that 100 pmol of the product was present in 0.05 μl of distilled water was injected into each larva, while in the case of the synthetic peptides in the amidated and free acid forms, 100 pmol/0.05 μl each of the peptide was injected into each larva. In any case, the larvae were inspected for the number of larvae falling into dormancy, the number of larvae awakening from the dormancy, the number of died larvae and the average days required till awakening from the dormancy (diapause termination) to thus evaluate the rate of larvae awakening from the dormancy.
After 24 hours from the treatment with the KK-42 solution, 0.05 μl of distilled water was injected to the pre-larvae, followed by a second distilled water injection thereto after additional 24 hours and a third distilled water injection after additional 24 hours from the second distilled water injection (in the following Table 2, they are referred to as control 1, 2 and 3 respectively). And the rate of pre-larvae awaken from the dormancy (the rate of diapause termination) was evaluated in each case.

[4] = test system: rat hepatoma cells (dRLh84); assay: Morphological observation of cultured cancer cells (inverted microscope); type: cell-based; conditions: 200 μg/ml
Protocol: as §1
The inhibitory effect of the penta-peptide on the growth of cancer cells was examined as follows. As the cancer cells, there were used rat hepatoma cells (dRLh84), which were relatively easily available and whose cultivation was easy. To make clear the relation between the physiologically active substance (RF—NH2) of the present invention and the growth of cancer cells, cancer cells were cultured in a cell culture medium supplemented with PBS(−) for a control group and culture mediums supplemented with 200 μg/ml each of the peptide whose C-terminal was amidated, i.e., RF—NH2 and the peptide whose C-terminal was in a free acid form, i.e., RF—COOH, respectively, for the experimental groups. The number of cultured cells was adjusted to 3 to 5×10^5, and the cells were cultured with or without a predetermined amount of each peptide in the presence of 5% CO2 at 37° C. […]

[5] = test system: rat hepatoma cells (dRLh84); assay: Flow cytometric analysis of cell cycle (propidium iodide DNA content); type: cell-based; conditions: 200 μg/ml; 48 hours
Protocol: The cells treated with each peptide was fixed at 4° C. for 4 hours using 70% ethanol. The fixed cells were washed with PBS(−), then treated with 2 mg/ml of RNaseA at 37° C. for 30 minutes to thus […] the RNA. Thereafter, the cells were stained with propidium iodide (25 μg/ml) for not less than 30 minutes and filtered through a nylon mesh. Then the intensity of fluorescence (DNA content per cell) observed for 10,000 cells was analyzed using a flow cytometer ([…] available from Becton Dickinson Company).
The fact that the physiologically active substance of the present invention can inhibit the cell growth ability of the rat hepatoma is substantiated experimentally by the results obtained in Examples 6, 7 and 8 (FIGS. 9, 10 and 11). Thus, we tried to elucidate the mechanism of the inhibition. The peptide (DILRG—NH2)(200 μg/ml) was added to the culture medium under the same conditions used in Example 6 and the cells were cultured, followed by fixing the cells after cultivation of 48 hours with ethanol and then staining the cells with propidium iodide. In addition, the same procedures used above were repeated using a culture medium supplemented with PBS(−) as a control group. The DNA content in the cells was analyzed using a flow cytometer. The flow cytometric analysis employed for this purpose comprises the step of staining cells with propidium iodide, which is a fluorescent dye capable of being linked with DNA to thus determine the DNA content of the cell and this method permits the analysis of the cell cycle control. More specifically, the biological cell multiplies by cell division while undergoing the following cycle change: G0/G 1. S (DNA replication stage) and M stage (cell division stage) in this order. FIGS. 12(A) and 12(B) are graphs each showing the results obtained by determining the DNA content in each cancer cell using a flow cytometer and then analyzing the results. It can be predicted from the data shown in FIGS. 12(A) and 12(B), i.e., the cell cycle change observed for the control group (PBS(−) was used, FIG. 12(A)) and that observed for the experimental group (RF—NH2 was used, FIG. 12(B)), that the pattern of the rat hepatoma cell cycle is differently affected by the presence and absence of the peptide.
Then the patterns observed in FIGS. 12(A) and 12(B) were examined in detail. In the G0/G1 stage, the DNA content is 2n, while that observed in the M stage is two times that observed for the G0/G1 stage or 4n. In the analysis of data shown in FIGS. 12(A) and 12(B), the DNA contents of 2n and 4n correspond to peaks or wide peaks at 360 and 700, respectively. If it is assumed that the analyzed pattern of the cell cycle change shown in FIGS. 12(A) and 12(B) comprises a linear coupling of peaks specific to G0/G1, S, M stages, the rate of cells in each stage can be obtained by dividing the pattern into these individual components.

[6] = Acute toxicity test in mice; type: in vivo
Protocol: (§2) The foregoing peptide of the present invention as the physiologically active substance is almost free of an) side effect in the living body as compared with the conventional Cecropin and Pierisin and any acute toxicity is not observed at all. More specifically, the peptide of the present invention was administered to rats and mice through two routes, i.e., oral and percutaneous routes, in an amount of 0.5 g per unit body weight (1 kg) and the acute toxicity test was carried out according to the predetermined method. […] Moreover, the testis of the genital organ was removed from each animal after the acute toxicity test and the tissue was examined with a microscope. […] In addition, the peptide of the present invention is a low molecular weight penta-peptide and therefore, it never causes any antigen-antibody reaction and it is safe.

[7] = Acute toxicity test in rats; type: in vivo
Protocol: as §2

[8] = Example 10, 200 μg/2.6×10^5 cells, 48 hours
[9] = 100 pmol/0.05 μl injected once 24 hours after KK-42 treatment, N 10 × 3
[10] = 100 pmol/0.05 μl injected once 24 hours after KK-42 treatment
[11] = Table 2, 100 pmol/0.05 μl × 1, N 10 × 3
[12] = Table 2, 100 pmol/0.05 μl × 2 (24 hours apart), N 10 × 3
[13] = Table 2, 100 pmol/0.05 μl × 3 (24 hours apart), N 10 × 3
[14] = after the acute toxicity test, 0.5 g/kg oral and percutaneous
[15] = oral and percutaneous routes, 0.5 g per unit body weight (1 kg)

Substance: Cecropin
- anti-tumor activity to cultured cells [1]: anti-tumor activity

Substance: Ile-Leu-Arg-Gly (ILRG-NH2) [ILRG—NH2]
- growth-inhibitory effect [2, 8]: sufficient growth-inhibitory effect
- viable cell count [2, 8]: 8.4×10^5 cells

Substance: 1-benzyl-5-[(E)-2,6-dimethyl-1,5-heptadienyl] [KK-42, reference compound]
- larvae awakened from the dormancy ([3]; 0.1 μg/0.5 μl solution in acetone applied on the ventral portion of each larva): 100%

Substance: DILRG-OH [Asp-Ile-Leu-Arg-Gly-COOH]
- Number of Insects Died [3, 9]: 0

Substance: H-DILRG-NH2 [Asp-Ile-Leu-Arg-Gly-NH2]
- No. of Days (Time (day) required till Awakening) [3, 10]: 6.72 days
- Rate (the rate of larvae awakening from dormancy) [3, 10]: 53.3%
- Number of Insects Awa (Awakening from Dormancy) [3, 9]: 16
- Number of Insects Died [3, 9]: 0
- Number of Insects Dor (Dormancy) [3, 9]: 14
- Rate of Diapause Termination ([3]; Table 2, 100 pmol/0.05 μl × 1): 53.3%
- Number of Insects Awa (Diapause Termination) [3, 11]: 16
- Number of Insects Died [3, 11]: 0
- Number of Insects Dor (Dormancy) [3, 11]: 14
- Rate of Diapause Termination ([3]; Table 2, 100 pmol/0.05 μl × 2 (24 hours apart)): 30%
- Number of Insects Awa (Diapause Termination) [3, 12]: 9
- Number of Insects Died [3, 12]: 0
- Number of Insects Dor (Dormancy) [3, 12]: 21
- Rate of Diapause Termination ([3]; Table 2, 100 pmol/0.05 μl × 3 (24 hours apart)): 13.3%
- Number of Insects Awa (Diapause Termination) [3, 13]: 4
- Number of Insects Died [3, 13]: 0
- Number of Insects Dor (Dormancy) [3, 13]: 26
- number of cancer cells compared with the initiation of the cultivation (0 hour) ([4]; after 24 and 48 hours): not increased at all
- shape of the cells ([4]; after 48 hours): changed from a spindle-like shape to a circular shape
- G0/G1 stage rate higher than that observed for the control group [5]: not less than 30%
- Rate of cells in G0/G1 Stage [5]: 66.07%
- Rate of cells in G2/M Stage [5]: 12.10%
- Rate of cells in S Stage [5]: 21.84%
- S stage rate lower than that observed for the control group [5]: not less than 40%
- testis tissue examined with a microscope [6, 14]: any abnormality was not observed at all
- acute toxicity such as convulsion and vomiting [6, 15]: not observed any acute toxicity
- viable cell count ([2]; Example 7, 50 μg/ml, 3×10^5 cells cultured 40 hours): markedly reduced
- viable cell count ([2]; Example 7, 200 μg/ml, 3×10^5 cells cultured 40 hours): 7.7×10^5 cells
- viable cell count relative to that observed for the control group ([2]; Example 7, 200 μg/ml, 40 hours): a half
- viable cell count ([2]; Example 8, 200 μg/ml, from 3×10^5 cells within 72 hours): 8×10^5 cells
- factor of increase of the number of cells ([2]; Example 8, 200 μg/ml, within 72 hours): 2.7
- viable cell count [2, 8]: ~7.7×10^5 cells
- cancer cell growth after transfer to fresh culture medium without peptide ([2]; after cultivation for 48 hours with 200 μg/ml peptide): rapidly began to proliferate like the control group
- testis tissue examined with a microscope [7, 14]: any abnormality was not observed at all
- acute toxicity such as convulsion and vomiting [7, 15]: not observed any acute toxicity
